Measurements taken from ChEMBL document CHEMBL5726876, “NHE3-binding compounds and methods for inhibiting phosphate transport” (2019).

Assay: Cell-based activity under Prompt Conditions: Cell-based activity under Prompt Conditions. Rat or human NHE3-mediated Na+-dependent H+ antiport was measured using a modification of the pH sensitive dye method originally reported by Paradiso (PNAS USA. 81:7436-7440, 1984). Opossum kidney (OK) cells were obtained from the ATCC and propagated per their instructions. The rat NHE3 gene (GenBank M85300) or the human NHE3 gene (GenBank NM_004174.1) was introduced into OK cells via electroporation, and cells were seeded into 96 well plates and grown overnight. Medium was aspirated from the wells, cells were washed twice with NaCl-HEPES buffer (100 mM NaCl, 50 mM HEPES, 10 mM glucose, 5 mM KCl, 2 mM CaCl2, 1 mM MgCl2, pH 7.4), then incubated for 30 min at room temperature with NH4Cl-HEPES buffer (20 mM NH4Cl, 80 mM NaCl, 50 mM HEPES, 5 mM KCl, 2 mM CaCl2, 1 mM MgCl2, pH 7.4) containing 5 μM bis(acetoxymethyl) 3,3′-(3′,6′-bis(acetoxymethoxy)-5-((acetoxymethoxy)carbonyl)-3-oxo-3H-spiro[isobenzofuran-1,9′-xanthene]-2′,7′-diyl)dipropanoate (BCECF-AM).Cells were washed twice with Ammonium free, Na+-free HEPES (100 mM choline, 50 mM HEPES, 10 mM glucose, 5 mM KCl, 2 mM CaCl2, 1 mM MgCl2, pH 7.4) and incubated in the same buffer for 10 minutes at room temperature to lower intracellular pH. […] Initial rates were plotted as the average 2 or more replicates, and pIC50 values were estimated using GraphPad Prism.

SMILES | IC50 [nM]
CCC(=O)NC(CCC(=O)NCCOCCOCCOCCNS(=O)(=O)c1cccc([C@@H]2CN(C)Cc3c(Cl)cc(Cl)cc32)c1)(CCC(=O)NCCOCCOCCOCCNS(=O)(=O)c1cccc([C@@H]2CN(C)Cc3c(Cl)cc(Cl)cc32)c1)CCC(=O)NCCOCCOCCOCCNS(=O)(=O)c1cccc([C@@H]2CN(C)Cc3c(Cl)cc(Cl)cc32)c1 | 79.4
CN1Cc2c(Cl)cc(Cl)cc2[C@H](c2cccc(S(=O)(=O)NCCOCCOCCOCCNC(=O)CC(CC(=O)NCCOCCOCCOCCNS(=O)(=O)c3cccc([C@@H]4CN(C)Cc5c(Cl)cc(Cl)cc54)c3)C(=O)NCCOCCOCCOCCNS(=O)(=O)c3cccc([C@@H]4CN(C)Cc5c(Cl)cc(Cl)cc54)c3)c2)C1 | 31.6
CN1Cc2c(Cl)cc(Cl)cc2[C@H](c2cccc(S(=O)(=O)NCCOCCOCCOCCn3cc(CN(Cc4cn(CCOCCOCCOCCNS(=O)(=O)c5cccc([C@@H]6CN(C)Cc7c(Cl)cc(Cl)cc76)c5)nn4)Cc4cnnn4CCOCCOCCOCCNS(=O)(=O)c4cccc([C@@H]5CN(C)Cc6c(Cl)cc(Cl)cc65)c4)nn3)c2)C1 | 5010
CN1Cc2c(Cl)cc(Cl)cc2[C@H](c2cccc(S(=O)(=O)NCCOCCOCCNC(=O)CN(CCOCCOCCN(CC(=O)NCCOCCOCCNS(=O)(=O)c3cccc([C@@H]4CN(C)Cc5c(Cl)cc(Cl)cc54)c3)CC(=O)NCCOCCOCCNS(=O)(=O)c3cccc([C@@H]4CN(C)Cc5c(Cl)cc(Cl)cc54)c3)CC(=O)NCCOCCOCCNS(=O)(=O)c3cccc([C@@H]4CN(C)Cc5c(Cl)cc(Cl)cc54)c3)c2)C1 | 1580
CN1Cc2c(Cl)cc(Cl)cc2[C@H](c2cccc(S(=O)(=O)NCCOCCOCCOCCNC(=O)CC(O)(CC(=O)NCCOCCOCCOCCNS(=O)(=O)c3cccc([C@@H]4CN(C)Cc5c(Cl)cc(Cl)cc54)c3)C(=O)NCCOCCOCCOCCNS(=O)(=O)c3cccc([C@@H]4CN(C)Cc5c(Cl)cc(Cl)cc54)c3)c2)C1 | 100
O=C(NCCCCNC(=O)NCCOCCOCCNS(=O)(=O)c1ccc(O[C@H]2c3cc(Cl)cc(Cl)c3C[C@@H]2N2CC[C@@H](O)C2)cc1)NCCOCCOCCNS(=O)(=O)c1ccc(O[C@H]2c3cc(Cl)cc(Cl)c3C[C@@H]2N2CC[C@@H](O)C2)cc1 | < 10000
CCCCCCCCCCC(=O)NCCOCCOCCOCCNS(=O)(=O)c1cccc([C@@H]2CN(C)Cc3c(Cl)cc(Cl)cc32)c1 | < 10000
CN1Cc2c(Cl)cc(Cl)cc2[C@H](c2cccc(S(=O)(=O)NCCOCCOCCNC(=O)CN(CC(=O)NCCOCCOCCNS(=O)(=O)c3cccc([C@@H]4CN(C)Cc5c(Cl)cc(Cl)cc54)c3)CC(=O)NCCOCCOCCNS(=O)(=O)c3cccc([C@@H]4CN(C)Cc5c(Cl)cc(Cl)cc54)c3)c2)C1 | 501
CN1Cc2c(Cl)cc(Cl)cc2[C@H](c2cccc(S(=O)(=O)NCCOCCOCCNC(=O)NCCCN(CCCNC(=O)NCCOCCOCCNS(=O)(=O)c3cccc([C@@H]4CN(C)Cc5c(Cl)cc(Cl)cc54)c3)CCCNC(=O)NCCOCCOCCNS(=O)(=O)c3cccc([C@@H]4CN(C)Cc5c(Cl)cc(Cl)cc54)c3)c2)C1 | 562
CN1Cc2c(Cl)cc(Cl)cc2[C@H](c2cccc(S(=O)(=O)NCCOCCOCCOCCNC(=O)CCC(N)(CCC(=O)NCCOCCOCCOCCNS(=O)(=O)c3cccc([C@@H]4CN(C)Cc5c(Cl)cc(Cl)cc54)c3)CCC(=O)NCCOCCOCCOCCNS(=O)(=O)c3cccc([C@@H]4CN(C)Cc5c(Cl)cc(Cl)cc54)c3)c2)C1 | 63.1
CN1Cc2c(Cl)cc(Cl)cc2[C@H](c2cccc(S(=O)(=O)NCCOCCOCCNC(=O)CC(O)(CC(=O)NCCOCCOCCNS(=O)(=O)c3cccc([C@@H]4CN(C)Cc5c(Cl)cc(Cl)cc54)c3)C(=O)NCCOCCOCCNS(=O)(=O)c3cccc([C@@H]4CN(C)Cc5c(Cl)cc(Cl)cc54)c3)c2)C1 | 1000
O=C(NCCCCNC(=O)NCCOCCOCCNS(=O)(=O)c1ccc(O[C@H]2c3cc(Cl)cc(Cl)c3C[C@@H]2N2CCCCC2)cc1)NCCOCCOCCNS(=O)(=O)c1ccc(O[C@H]2c3cc(Cl)cc(Cl)c3C[C@@H]2N2CCCCC2)cc1 | < 10000
CN1Cc2c(Cl)cc(Cl)cc2[C@H](c2cccc(S(=O)(=O)NCCOCCOCCNC(=O)NCCN(CCNC(=O)NCCOCCOCCNS(=O)(=O)c3cccc([C@@H]4CN(C)Cc5c(Cl)cc(Cl)cc54)c3)C(=O)CCCCCCCCCCC(=O)N(CCNC(=O)NCCOCCOCCNS(=O)(=O)c3cccc([C@@H]4CN(C)Cc5c(Cl)cc(Cl)cc54)c3)CCNC(=O)NCCOCCOCCNS(=O)(=O)c3cccc([C@@H]4CN(C)Cc5c(Cl)cc(Cl)cc54)c3)c2)C1 | < 10000
CN1Cc2c(Cl)cc(Cl)cc2[C@H](c2cccc(S(=O)(=O)NCCOCCOCCOCCNC(=O)c3ccc(-c4ccc(Cl)cc4)cc3)c2)C1 | < 10000
CN1Cc2c(Cl)cc(Cl)cc2[C@H](c2cccc(S(=O)(=O)NCCOCCOCCNC(=O)CN(CCN(CC(=O)O)CC(=O)NCCOCCOCCNS(=O)(=O)c3cccc([C@@H]4CN(C)Cc5c(Cl)cc(Cl)cc54)c3)CC(=O)O)c2)C1 | 12.6
CN1Cc2c(Cl)cc(Cl)cc2[C@H](c2cccc(S(=O)(=O)NCCOCCOCCNC(=O)CCN(CCC(=O)NCCOCCOCCNS(=O)(=O)c3cccc([C@@H]4CN(C)Cc5c(Cl)cc(Cl)cc54)c3)CCC(=O)NCCOCCOCCNS(=O)(=O)c3cccc([C@@H]4CN(C)Cc5c(Cl)cc(Cl)cc54)c3)c2)C1 | 3160
CN1Cc2c(Cl)cc(Cl)cc2[C@H](c2cccc(S(=O)(=O)NCCOCCOCCOCCNC(=O)CCC(CCC(=O)NCCOCCOCCOCCNS(=O)(=O)c3cccc([C@@H]4CN(C)Cc5c(Cl)cc(Cl)cc54)c3)(CCC(=O)NCCOCCOCCOCCNS(=O)(=O)c3cccc([C@@H]4CN(C)Cc5c(Cl)cc(Cl)cc54)c3)NC(=O)c3ccc(-c4ccc(Cl)cc4)cc3)c2)C1 | 5010
CN1Cc2c(Cl)cc(Cl)cc2[C@H](c2cccc(S(=O)(=O)NCCOCCOCCOCCNC(=O)CN3CCN(c4nc(N5CCN(CC(=O)NCCOCCOCCOCCNS(=O)(=O)c6cccc([C@@H]7CN(C)Cc8c(Cl)cc(Cl)cc87)c6)CC5)nc(N5CCN(CC(=O)NCCOCCOCCOCCNS(=O)(=O)c6cccc([C@@H]7CN(C)Cc8c(Cl)cc(Cl)cc87)c6)CC5)n4)CC3)c2)C1 | 251
CN1Cc2c(Cl)cc(Cl)cc2[C@H](c2cccc(S(=O)(=O)NCCOCCOCCNC(=O)NCCN(CCNC(=O)NCCOCCOCCNS(=O)(=O)c3cccc([C@@H]4CN(C)Cc5c(Cl)cc(Cl)cc54)c3)CCNC(=O)NCCOCCOCCNS(=O)(=O)c3cccc([C@@H]4CN(C)Cc5c(Cl)cc(Cl)cc54)c3)c2)C1 | 2510
CN1Cc2c(Cl)cc(Cl)cc2[C@H](c2cccc(S(=O)(=O)NCCOCCOCCOCCNC(=O)NCCN3CCN(c4nc(N5CCN(CCNC(=O)NCCOCCOCCOCCNS(=O)(=O)c6cccc([C@@H]7CN(C)Cc8c(Cl)cc(Cl)cc87)c6)CC5)nc(N5CCN(CCNC(=O)NCCOCCOCCOCCNS(=O)(=O)c6cccc([C@@H]7CN(C)Cc8c(Cl)cc(Cl)cc87)c6)CC5)n4)CC3)c2)C1 | 200
NCCOCCOCCNS(=O)(=O)c1ccc(O[C@H]2c3cc(Cl)cc(Cl)c3C[C@@H]2N2CCCCC2)cc1 | < 10000
CN1Cc2c(Cl)cc(Cl)cc2[C@H](c2cccc(S(=O)(=O)NCCOCCOCCNC(=O)CCC(N)(CCC(=O)NCCOCCOCCNS(=O)(=O)c3cccc([C@@H]4CN(C)Cc5c(Cl)cc(Cl)cc54)c3)CCC(=O)NCCOCCOCCNS(=O)(=O)c3cccc([C@@H]4CN(C)Cc5c(Cl)cc(Cl)cc54)c3)c2)C1 | 85.1
CN1Cc2c(Cl)cc(Cl)cc2[C@H](c2cccc(S(=O)(=O)NCCOCCOCCOCCNC(=O)CN(CCN(CC(=O)O)CC(=O)NCCOCCOCCOCCNS(=O)(=O)c3cccc([C@@H]4CN(C)Cc5c(Cl)cc(Cl)cc54)c3)CC(=O)O)c2)C1 | 10
CN1Cc2c(Cl)cc(Cl)cc2[C@H](c2cccc(S(=O)(=O)NCCOCCOCCOCCNC(=O)CN(CCN(CC(=O)NCCOCCOCCOCCNS(=O)(=O)c3cccc([C@@H]4CN(C)Cc5c(Cl)cc(Cl)cc54)c3)CC(=O)NCCOCCOCCOCCNS(=O)(=O)c3cccc([C@@H]4CN(C)Cc5c(Cl)cc(Cl)cc54)c3)CCN(CC(=O)NCCOCCOCCOCCNS(=O)(=O)c3cccc([C@@H]4CN(C)Cc5c(Cl)cc(Cl)cc54)c3)CC(=O)NCCOCCOCCOCCNS(=O)(=O)c3cccc([C@@H]4CN(C)Cc5c(Cl)cc(Cl)cc54)c3)c2)C1 | 501
CN1Cc2c(Cl)cc(Cl)cc2[C@H](c2cccc(S(=O)(=O)NCCOCCOCCOCCNC(=O)CN(CC(=O)NCCOCCOCCOCCNS(=O)(=O)c3cccc([C@@H]4CN(C)Cc5c(Cl)cc(Cl)cc54)c3)[C@@H]3CCCC[C@H]3N(CC(=O)NCCOCCOCCOCCNS(=O)(=O)c3cccc([C@@H]4CN(C)Cc5c(Cl)cc(Cl)cc54)c3)CC(=O)NCCOCCOCCOCNS(=O)(=O)c3cccc([C@@H]4CN(C)Cc5c(Cl)cc(Cl)cc54)c3)c2)C1 | 316
CN1Cc2c(Cl)cc(Cl)cc2C(c2cccc(S(=O)(=O)NCCOCCOCCOCCNC(=O)CCN(CCC(=O)NCCOCCOCCOCCNS(=O)(=O)c3cccc([C@@H]4CN(C)Cc5c(Cl)cc(Cl)cc54)c3)CCC(=O)NCCOCCOCCOCCNS(=O)(=O)c3cccc([C@@H]4CN(C)Cc5c(Cl)cc(Cl)cc54)c3)c2)C1 (stereo not given in full) | 316
CCOCCOCCC(=O)N(CCNC(=O)NCCOCCOCCNS(=O)(=O)c1cccc([C@@H]2CN(C)Cc3c(Cl)cc(Cl)cc32)c1)CCNC(=O)NCCOCCOCCNS(=O)(=O)c1cccc([C@@H]2CN(C)Cc3c(Cl)cc(Cl)cc32)c1 | 158
CCCCCCCCNC(=O)N(CCNC(=O)NCCOCCOCCNS(=O)(=O)c1cccc([C@@H]2CN(C)Cc3c(Cl)cc(Cl)cc32)c1)CCNC(=O)NCCOCCOCCNS(=O)(=O)c1cccc([C@@H]2CN(C)Cc3c(Cl)cc(Cl)cc32)c1 | 1580
CCOCCN(CC(=O)NCCOCCOCCOCCNS(=O)(=O)c1cccc([C@@H]2CN(C)Cc3c(Cl)cc(Cl)cc32)c1)CC(=O)NCCOCCOCCOCCNS(=O)(=O)c1cccc([C@@H]2CCN(C)c3c(Cl)cc(Cl)cc32)c1 | 63.1
CN(CCCNC(=O)NCCOCCOCCOCCNS(=O)(=O)c1cccc([C@@H]2CN(C)Cc3c(Cl)cc(Cl)cc32)c1)CCCNC(=O)NCCOCCOCCOCCNS(=O)(=O)c1cccc([C@@H]2CN(C)Cc3c(Cl)cc(Cl)cc32)c1 | 39.8
